From PMC6364417, “Kinase inhibitor library screening identifies synergistic drug combinations effective in sensitive and resistant melanoma cells” (Journal of Experimental & Clinical Cancer Research : CR, 2019)

How the values were obtained:
Test in all cases: Kinase inhibitor library screening, PrestoBlue cell viability, 1 or 10 μM, 72 h
501Mel cells (parental) = settings: 501Mel Parental, 72 h
How it was run: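 Each compound was applied to parental melanoma cells and to derivatives made resistant to Vemurafenib or Dabrafenib. After treatment, viability was read with PrestoBlue on a plate reader and expressed as % of untreated cells, with each line run at least in duplicate.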

[1] = test system: 501Mel-GP cells (Dabrafenib-resistant); settings: 501Mel GP, 72 h
[2] = test system: 501Mel-XP cells (Vemurafenib-resistant); settings: 501Mel XP, 72 h
A375 cells (parental) = settings: A375 Parental, 72 h
[3] = test system: A375-GP cells (Dabrafenib-resistant); settings: A375 GP, 72 h
[4] = test system: A375-XP cells (Vemurafenib-resistant); settings: A375 XP, 72 h
IGR37 cells (parental) = settings: IGR37 Parental, 72 h
[5] = test system: IGR37-GP cells (Dabrafenib-resistant); settings: IGR37 GP, 72 h
[6] = test system: IGR37-XP cells (Vemurafenib-resistant); settings: IGR37 XP, 72 h

C[C@@H]1CN(CC(=O)Nc2ccc3c(c2)Cc2cccc(-c4cc(=O)cc(N5CCOCC5)o4)c2S3)C[C@H](C)O1 [KU-60019]
cell viability (kinase inhibitor library screening) (501Mel cells (parental); 1μΜ): 90.0% | cell viability (kinase inhibitor library screening) (501Mel cells (parental); 10μΜ): 71.5% | cell viability (kinase inhibitor library screening) ([1]; 1μΜ): 103.1% | cell viability (kinase inhibitor library screening) ([1]; 10μΜ): 54.1% | cell viability (kinase inhibitor library screening) ([2]; 1μΜ): 91.4% | cell viability (kinase inhibitor library screening) ([2]; 10μΜ): 36.5% | cell viability (kinase inhibitor library screening) (A375 cells (parental); 10μΜ): 78.4% | cell viability (kinase inhibitor library screening) ([3]; 1μΜ): 100.5% | cell viability (kinase inhibitor library screening) ([3]; 10μΜ): 68.6% | cell viability (kinase inhibitor library screening) ([4]; 10μΜ): 74.4% | cell viability (kinase inhibitor library screening) (IGR37 cells (parental); 10μΜ): 97.6% | cell viability (kinase inhibitor library screening) ([5]; 1μΜ): 92.9% | cell viability (kinase inhibitor library screening) ([6]; 10μΜ): 34.1%

C[C@@H](Oc1cc(-n2cnc3ccc(CN4CCN(C)CC4)cc32)sc1C(N)=O)c1ccccc1C(F)(F)F [GSK461364]
Cell viability in kinase inhibitor library screening, 501Mel Parental, 1μΜ (501Mel cells (parental); 1μΜ, in %): 18.0 | Cell viability in kinase inhibitor library screening, 501Mel Parental, 10μΜ (501Mel cells (parental); 10μΜ, in %): 16.7 | Cell viability in kinase inhibitor library screening, 501Mel GP, 1μΜ ([1]; 1μΜ, in %): 14.1 | Cell viability in kinase inhibitor library screening, 501Mel GP, 10μΜ ([1]; 10μΜ, in %): 31.3 | Cell viability in kinase inhibitor library screening, 501Mel XP, 1μΜ ([2]; 1μΜ, in %): 8.8 | Cell viability in kinase inhibitor library screening, 501Mel XP, 10μΜ ([2]; 10μΜ, in %): 5.4 | Cell viability in kinase inhibitor library screening, A375 Parental, 10μΜ (A375 cells (parental); 10μΜ): 29.0 | Cell viability in kinase inhibitor library screening, A375 Parental, 1μΜ (A375 cells (parental); 1μΜ): 8.9 | Cell viability in kinase inhibitor library screening, A375 GP, 1μΜ ([3]; 1μΜ): 12.0 | Cell viability in kinase inhibitor library screening, A375 GP, 10μΜ ([3]; 10μΜ): 26.2 | Cell viability in kinase inhibitor library screening, A375 XP, 1μΜ ([4]; 1μΜ): 26.8 | Cell viability in kinase inhibitor library screening, A375 XP, 10μΜ ([4]; 10μΜ): 31.7 | Cell viability in kinase inhibitor library screening, IGR37 Parental, 1μΜ (IGR37 cells (parental); 1μΜ, in %): 29.0 | Cell viability in kinase inhibitor library screening, IGR37 Parental, 10μΜ (IGR37 cells (parental); 10μΜ, in %): 57.5 | Cell viability in kinase inhibitor library screening, IGR37 GP, 10μΜ ([5]; 10μΜ): 69.3% | Cell viability in kinase inhibitor library screening, IGR37 GP, 1μΜ ([5]; 1μΜ, in %): 91.5 | Cell viability in kinase inhibitor library screening, IGR37 XP, 10μΜ ([6]; 10μΜ): 28.5% | Cell viability in kinase inhibitor library screening, IGR37 XP, 1μΜ ([6]; 1μΜ, in %): 70.5

Cc1[nH]nc2ccc(-c3cncc(OC[C@@H](N)Cc4ccccc4)c3)cc12 [A-674563]
cell viability (kinase inhibitor library screening) (501Mel cells (parental); 1μΜ): 73.1% | cell viability (kinase inhibitor library screening) (501Mel cells (parental); 10μΜ): 1.4% | cell viability (kinase inhibitor library screening) ([1]; 1μΜ): 64.5% | cell viability (kinase inhibitor library screening) ([1]; 10μΜ): 0.638% | cell viability (kinase inhibitor library screening) ([2]; 1μΜ): 56.5% | cell viability (kinase inhibitor library screening) ([2]; 10μΜ): 0.5% | cell viability (kinase inhibitor library screening) (A375 cells (parental); 10μΜ): 4.6% | cell viability (kinase inhibitor library screening) (A375 cells (parental); 1μΜ): 82.1% | cell viability (kinase inhibitor library screening) ([3]; 1μΜ): 63.4% | cell viability (kinase inhibitor library screening) ([3]; 10μΜ): 2.7% | cell viability (kinase inhibitor library screening) ([4]; 1μΜ): 54.3% | cell viability (kinase inhibitor library screening) ([4]; 10μΜ): 6.6% | cell viability (kinase inhibitor library screening) (IGR37 cells (parental); 1μΜ): 96.7% | cell viability (kinase inhibitor library screening) (IGR37 cells (parental); 10μΜ): 1.9% | cell viability (kinase inhibitor library screening) ([5]; 1μΜ): 99.0% | cell viability (kinase inhibitor library screening) ([5]; 10μΜ): 2.8% | cell viability (kinase inhibitor library screening) ([6]; 1μΜ): 78.0% | cell viability (kinase inhibitor library screening) ([6]; 10μΜ): 2.1%

COc1cc2ncnc(Nc3cccc(Br)c3)c2cc1OC.Cl [PD153035 HCl]
cell viability, 501Mel Parental, 1μΜ (501Mel cells (parental); 1μΜ, in %): 107.0 | cell viability, 501Mel Parental, 10μΜ (501Mel cells (parental); 10μΜ, in %): 38.0 | cell viability, 501Mel GP, 1μΜ ([1]; 1μΜ, in %): 110.1 | cell viability, 501Mel GP, 10μΜ ([1]; 10μΜ, in %): 28.5 | cell viability, 501Mel XP, 1μΜ ([2]; 1μΜ, in %): 99.4 | cell viability, 501Mel XP, 10μΜ ([2]; 10μΜ, in %): 16.6 | cell viability, A375 Parental, 1μΜ (A375 cells (parental); 1μΜ, in %): 108.8 | cell viability, A375 Parental, 10μΜ (A375 cells (parental); 10μΜ, in %): 108.3 | cell viability, A375 GP, 1μΜ ([3]; 1μΜ, in %): 106.0 | cell viability, A375 GP, 10μΜ ([3]; 10μΜ, in %): 105.2 | cell viability, A375 XP, 1μΜ ([4]; 1μΜ, in %): 108.7 | cell viability, A375 XP, 10μΜ ([4]; 10μΜ, in %): 97.5 | cell viability, IGR37 Parental, 1μΜ (IGR37 cells (parental); 1μΜ, in %): 115.8 | cell viability, IGR37 Parental, 10μΜ (IGR37 cells (parental); 10μΜ, in %): 42.8 | cell viability, IGR37 GP, 10μΜ ([5]; 10μΜ): 73.7% | cell viability, IGR37 XP, 10μΜ ([6]; 10μΜ): 30.6% | cell viability, IGR37 XP, 1μΜ ([6]; 1μΜ, in %): 82.2
